Test results taken from patent US11639494B2, “Culture medium” (Vitrolife Sweden AB, priority 2015, dated 2023).

Assays:
[1] = system: embryos; test: Group embryo culture in 20% oxygen, blastocyst cell numbers by differential staining; assay type: cell-based, mice; conditions: 20% O2; for optimal dose (dose that resulted in significantly higher cell numbers): single compound
Method: F1 virgin hybrid female mice (C57BL/6×CBA) at 3-4 weeks old were intraperitoneally injected with 5 IU of pregnant mare's serum gonadotrophin. 48 hours later 5 IU of human chorulon gonadotrophin was administered and the female mice mated with F1 male mice >12 weeks old. Successful mating was confirmed by the presence of a vaginal mucus plug the following morning. Pronucleate oocytes were collected 22 hours after hCG injection, in pre-warmed handling medium (G-MOPS) supplemented with 5 mg/ml human sera albumin. Cumulus cells were denuded from the oocytes with GMOPS containing 300 IU/ml hyaluronidase. All embryos were washed twice in G-MOPS media and once in G-1™ medium prior to allocation for culture. Animals were housed in 12 hour light-day photoperiod with food and water available ad libitum.
Embryos were cultured in groups of 10 in 20 ul drops of media under paraffin oil in 6% CO2 in air (atmospheric oxygen ˜20%) or at 6% CO2 5% oxygen at 37° C. in a humidified multi gas incubator (Sanyo MCOK-5M[RC], Japan). Embryos were cultured in G-1™ medium (G-1™ with HSA-Solution™, Vitrolife) for 48 hours and then for a further 48 hours in G-2™ medium (G-2™ with HSA-Solution™, Vitrolife). […] All cultures were performed in 35 mm petri dishes (Falcon, BD Biosciences).
Differential staining of embryos was performed by techniques commonly known in the art to determine the allocation of cells to the inner cell mass (ICM) and trophectoderm (TE) on day 5 (e.g. in the blastocyst). Briefly, after zona removal using pronase, embryos were treated with a complement reaction which labels the in TE nuclei with propidium iodide and leaves the ICM intact and unlabelled. Following bisbenzimide treatment, all nuclei were stained. Embryos were whole-mounted in glycerol and imaged using an inverted fluorescence microscope (Nikon Eclipse TS100) fitted with a digital camera (Nikon digital sight DS-Fi1) and nuclei counted using imaging software ImageJ.
Embryos cultured in control groups were grown in G-™1 and G-2™ medium supplemented with HSA 5 mg/ml (HSA, Vitrolife). Embryos in treatment groups were similarly cultured with Acetyl Carnitine, Acetyl Cysteine or α-Lipoic acid Sigma Aldrich, USA) supplemented in the G-1™ and G-2™ medium at doses of 1, 10 and 100 μM and supplemented with HSA as the control group. […] The “total mean” means the average total number of cells in the embryo (including inner cell mass and trophectoderm) at day 5.
Embryos cultured in control groups were grown in G-1™ and G-2™ medium supplemented with HSA-Solution™ 5 mg/ml. Embryos in treatment groups were similarly cultured with 10 μM Acetyl Carnitine-10 μM Acetyl Cysteine, 10 μM Acetyl Carnitine-5 μM Lipoic acid, 10 μM Acetyl Cysteine-5 μM Lipoic acid, the triple cocktail of 10 μM Acetyl Carnitine-10 μM Acetyl Cysteine 5 μM Lipoic acid supplemented in the G-1™ and G-2™ medium and supplemented with HSA.

[2] = system: glutathione (GSH); test: BSO/MCB probe dosage optimisation and verification of MCB specificity to glutathione; assay type: cell-based, mice
Method: Embryos were cultured in groups of 10 in 20 ul drops of media under paraffin oil (Ovoil, Vitrolife) in 6% CO2, 20% O2 74% N2 at 37° C. in a humidified multi gas incubator (Sanyo MCOK-5M[RC], Japan). Half of the embryos were allocated to the control group and the other half to the treatment group. Control group embryos were cultured in G-1™ medium (G-1™ with HSA-Solution™, Vitrolife) […]. Treatment group embryos were likewise cultured with the optimal triple antioxidant dose supplemented in the G-1™ medium (as determined in Example 2).
Immediately after collection, pronucleate control embryos were incubated in G-1™ medium spiked with BSO at doses of 0, 50, 100, 200, 400, 800, 1600 μM for 4 hours at 6% CO2, 20% O2 74% N2 at 37° C. Embryos were rinsed thoroughly in G-1™ with HSA-Solution™ media and placed individually in 2 μl drops of GMOPS with HSA-Solution™ (G-MOPS™ Plus, Vitrolife AB, Sweden) made on glass bottom dishes (Fluorodish, Coherent Scientific, Australia) and overlayed with paraffin oil (Ovoil, Vitrolife) for fluorescence imaging. Optimal dosage was determined by recording the fluorescence at 360±40 nm/460±40 nm excitation/emission wavelengths under a fluorescence microscope (Nikon Eclipse TS100). Results were calculated by subtracting the values of blank (embryos with no BSO exposure) and basal levels of the culture media from the fluorescence recorded. […]

| Compound | Total Mean (average total number of cells in the embryo at day 5) ([1]; 1 μM in G-1 and G-2 medium) | Total Mean (average total number of cells in the embryo at day 5) ([1]; 10 μM in G-1 and G-2 medium) | Total Mean (average total number of cells in the embryo at day 5) ([1]; 30 μM in G-1 and G-2 medium) | Total Mean (average total number of cells in the embryo at day 5) ([1]; 1000 μM in G-1 and G-2 medium) | optimal dose (dose that resulted in significantly higher cell numbers) [1] [µM] | Total Mean (average total number of cells in the embryo at day 5) ([1]; 5 μM in G-1 and G-2 medium) | Total Mean (average total number of cells in the embryo at day 5) ([1]; 20 μM in G-1 and G-2 medium) | Total Mean (average total number of cells in the embryo at day 5) ([1]; 80 μM in G-1 and G-2 medium) | MCB fluorescence, BSO treated versus non-BSO treated group ([2]; 200 μM BSO, 80 μM MCB) | MCB fluorescence compared to groups treated with MCB only ([2]; pre-treated with 200 μM BSO, then 10 μM/ml or 40 μmol/ml MCB) |
| --- | --- | --- | --- | --- | --- | --- | --- | --- | --- | --- |
| CC(=O)N[C@@H](CS)C(=O)O [Acetyl Cysteine, N-acetyl-L-cysteine] | 81.92 | 109.29 | 104.38 | 95.17 | 10 |  |  |  |  |  |
| CC(=O)O[C@H](CC(=O)[O-])C[N+](C)(C)C [Acetyl Carnitine, acetyl-L-carnitine] | 95.85 | 107.83 | 86.93 | 67.41 | 10 |  |  |  |  |  |
| O=C(O)CCCCC1CCSS1 (stereo not drawn) [lipoic acid, α-lipoic acid] |  | 91.3 |  |  | 5 | 90.2 | 94 | 34.0 |  |  |
| CCCCS(=N)(=O)CCC(N)C(=O)O (centres unmarked) [BSO, buthionine sulfoximine] |  |  |  |  |  |  |  |  | no significant differences | significantly reduced fluorescence |
